Experimental data reported in patent US4073935A, “Substituted propanol-(2)-derivatives and their nicotinic acid esters, and process for their preparation, and the use thereof as hypolipemic drugs” (Klinge Pharma GmbH & Co., priority 1974, dated 1978).
Where two headings read alike, the source gives them in different places.

System: serum lipids
Experiment: Lipid-lowering action in normolipemic rats
Assay type: in vivo
Conditions: Rattus norvegicus, 72 h, 4 × 100 mg/kg oral over 3 days, male Wistar rats, vs controls, X ± Sx
Method: Lipid-lowering action was tested on groups of 10 male Wistar rats (Ivanovas-Kisslegg), weight 200-220 g, normolipemic, or ordinary ration ("ssniff" complete feed).
The test compounds were taken up in an aqueous solution of 0.25% agar and 0.85% NaCl and administered orally. After administration of 4 × 100 mg/kg over a period of 3 days, the animals were bled by cardiac puncture after privation of […] for 4 hours.^1
^1 H. Enomoto and R. Zschocke, 3rd Int. Symp. Atheroscler, Berlin 1973, Abstr. 238.
Serum lipids were determined with a Technicon autoanalyzer. Total cholesterol (TC) was tested by the Liebermann-Burchard reaction. Quantitative analysis for triglycerides (TG) was performed by Eggstein and Kreutz's enzyme method (Klin. Wschr. 44, 262, 1966), modified for autoanalyzer.
Lipid lowering effect is expressed as percent lowering of total cholesterol and triglycerides compared to controls.

[1] = read-out: % Lowering TC (total cholesterol)
[2] = read-out: % Lowering TG (triglycerides)

Row | Compound | inhibition in vivo at 100 mg/kg [1] [%] | inhibition in vivo at 100 mg/kg [2] [%]
1 | CC(C)(C)c1ccc(NCC(O)COc2ccc(C=CC(=O)O)cc2)cc1 (stereo not shown) [Compound 74, 3-4'-(2-Carboxyvinyl)-phenoxy!-1-(4'-t-butylphenylamino)-propanol-(2)] | 50.7 ± 6.4 | 69.7 ± 9.6
2 | CC(C)(C)c1ccc(SCC(O)COc2ccc(C=CC(=O)O)cc2)cc1 (stereo not shown) [Compound 81, 3-4'-(2-Carboxyvinyl)-phenoxy!-1-(4'-t-butylphenylmercapto)-propanol-(2)] | 27.5 ± 12.7 | 58.7 ± 14.8
3 | CC(C)(C)c1ccc(OCC(O)COc2ccc(C(=O)O)cc2)cc1 (stereo not shown) [Compound 59, 3-(4'-Carboxyphenoxy)-1-(4'-t-butylphenoxy)-propanol-(2)] | 45.7 ± 14.3 | 66.7 ± 8.1
4 | C=CCOC(=O)c1ccc(OCC(O)COc2ccc(Cl)cc2)cc1 (stereo not shown) [Compound 3] | 35.9 ± 18.1 | 68.6 ± 11
5 | COC(=O)c1ccc(NCC(O)COc2ccc(Cl)cc2)cc1 (stereo not shown) [Compound 30] | 12.1 ± 8.6 | 69.3 ± 15.9
6 | O=C(O)C=Cc1ccc(OCC(O)CSc2ccc(Cl)cc2)cc1 (stereo not shown) [Compound 77, 3-4'-(2-Carboxyvinyl)-phenoxy!-1-(4'-chlorphenylmercapto)-propanol-(2)] | 55.5 ± 12.7 | 77.8 ± 12
7 | CCOC(=O)c1ccc(NCC(O)COc2ccc(Cl)cc2)cc1 (stereo not shown) [Compound 31] | 33.3 ± 17.6 | 63.6 ± 18.5
8 | CCCOC(=O)C=Cc1ccc(OCC(O)COc2ccc(Cl)cc2)cc1 (stereo not shown) [Compound 12] | 40.3 ± 10.8 | 67 ± 15.7
9 | CC(C)OC(=O)c1cccc(OCC(O)COc2ccc(Cl)cc2)c1 (stereo not shown) [Compound 7] | 32.1 ± 18.1 | 73.2 ± 8.3
10 | COC(=O)C=Cc1ccc(OCC(O)CSc2ccc(Cl)cc2)cc1 (stereo not shown) [Compound 40, 3-(4'-(2-methoxycarbonylvinyl)-phenoxy)-1-(4'-chlorophenylmercapto)-propanol-(2)] | 9.6 ± 9.1 | 59.4 ± 14.7
11 | CC(C)(C)c1ccc(OCC(O)CNc2ccc(C(=O)O)cc2)cc1 (stereo not shown) [Compound 70, 3-(4'-Carboxyphenylamino)-1-(4'-t-butylphenoxy)-propanol-(2)] | 33.3 ± 12.2 | 78.1 ± 10.4
12 | COC(=O)c1ccc(OCC(O)CSc2ccc(C(C)(C)C)cc2)cc1 (stereo not shown) [Compound 43] | 37.2 ± 13.8 | 71 ± 12.5
13 | CC(C)(C)c1ccc(OCC(O)COc2ccc(C3OCCO3)cc2)cc1 (stereo not shown) [Compound 114] | 67.9 ± 6.6 | 91.6 ± 4.8
14 | COCCOC(=O)C=Cc1ccc(OCC(O)COc2ccc(C(C)(C)C)cc2)cc1 (stereo not shown) [Compound 51] | 47.8 ± 10.4 | 77 ± 7.4
15 | CC(C)OC(=O)c1ccc(OCC(COc2ccc(Cl)cc2)OC(=O)c2cccnc2)cc1 (stereo not shown) [Compound 96] | 36.8 ± 14.3 | 74 ± 4.8
16 | O=C(O)c1ccc(OCC(O)CNc2ccc(Cl)cc2)cc1 (stereo not shown) [Compound 65, 3-(4'-Carboxyphenoxy)-1-(4'-chlorphenylamino)-propanol-(2)] | 20.9 ± 13.7 | 72.9 ± 11.3
17 | O=C(OCCCl)c1ccc(OCC(O)COc2ccc(Cl)cc2)cc1 (stereo not shown) [Compound 82] | 53.9 ± 9.1 | 83.8 ± 6
18 | O=C(O)CCc1cccc(OCC(O)COc2ccc(Cl)cc2)c1 (stereo not shown) [Compound 58, 3-3'-(2-Carboxyathyl)-phenoxy!-1-(4'-chlorphenoxy)-propanol-(2)] | 42.2 ± 5.6 | 71.3 ± 7.6
19 | CCOC(=O)C=Cc1ccc(OCC(O)COc2ccc(Cl)cc2)cc1 (stereo not shown) [Compound 10] | 38.4 ± 5.6 | 77.4 ± 8.5
20 | CCCOC(=O)C=Cc1ccc(OCC(O)COc2ccc(C(C)(C)C)cc2)cc1 (stereo not shown) [Compound 23] | 40.9 ± 9.3 | 77.9 ± 5.5
